This is an account of results in patent publication EP2601952A1, “Novel pharmaceutically acceptable salts and cocrystals of 5-chloro-3-(4-methanesulfonylphenyl)-6'-methyl-[2,3']bipyridinyl and their therapeutic uses” (Zentiva, k.s., priority 2011, dated 2013).

For data set [1] the following is noted: anhydrous crystalline forms I, II, III, IV and V; Journal of Pharmaceutical Sciences, 95, 1, 56-69 (2006); cited from earlier work.
Data set [2] in a line: DVS isotherm (hygroscopicity, hydrate formation). Type of data set: physicochemical. As to conditions: for hygroscopicity: DVS isotherm plot (Figure 4 / Figure 11).
Data set [3] is described as follows: Polymorphic stability: maturation / slurrying of the salts in various solvents. It is filed as physicochemical. As to the method: Example 6: Method for assessing polymorphic stability of the succinic acid salt and Form A of the fumaric acid salt of 5-chloro-3-(4-methanesulfonylphenyl)-6'-methyl-[2,3']bipyridinyl.
Approximately 50-100 mg of the salts under investigation were suspended in 1ml of water, ethanol, 1-propanol, 2-propanol, 1-butanol, 2-butanol, tert-butanol, 1-pentanol, acetone, methyl ethyl ketone, isobutyl methyl ketone, ethyl formate, methyl acetate, ethyl acetate, propyl acetate, isopropyl acetate, butyl acetate, isobutyl acetate, tetrahydrofuran, 1,4-dioxane, toluene, acetonitrile and N-methyl pyrrolidine. […] The excess solvent was removed and the samples evaporated to dryness in a vacuum oven at 25 °C.

In the case of `Cc1ccc(-c2ncc(Cl)cc2-c2ccc(S(C)(=O)=O)cc2)cn1` [etoricoxib, 5-Chloro-3-(4-methanesulfonylphenyl)-6'-methyl-[2,3']bipyridinyl], in data set [1], the “instability of anhydrous crystalline forms” value is “convert to hemihydrate”.

Turning to `Cc1ccc(-c2ncc(Cl)cc2-c2ccc(S(C)(=O)=O)cc2)cn1.O=C(O)CCC(=O)O` [succinic acid salt, succinic acid salt of 5-chloro-3-(4-methanesulfonylphenyl)-6'-methyl-[2,3']bipyridinyl], the hygroscopicity result in data set [2] was “relatively non-hygroscopic”. In addition, in data set [2] (DVS isotherm plot, Figure 4), the “stability with respect to hydrate formation” value was “stable with respect to hydrate formation”. In data set [3] (Example 6: suspended in 1 ml of solvent, agitated at 25°C for 35 days), the “polymorphic changes when maturated in various solvents” value is “lack of observed polymorphic changes”.

In the case of `Cc1ccc(-c2ncc(Cl)cc2-c2ccc(S(C)(=O)=O)cc2)cn1.O=C(O)/C=C/C(=O)O` [Form A of the fumaric acid salt, fumaric acid salt of 5-chloro-3-(4-methanesulfonylphenyl)-6'-methyl-[2,3']bipyridinyl], the hygroscopicity result in data set [2] is given as “relatively non-hygroscopic”. The “polymorphic conversion on slurrying” value in data set [3] (slurrying in an aliphatic alcohol or cyclic ether) is on record as “Form B can be generated”.
